Laboratory results reported in patent US20240132531A1, “NOVEL GALACTOSIDE INHIBITOR OF GALECTINS” (GALECTO BIOTECH AB, priority 2020, published 2024).
pKd: −log10 of the molar value.

How the values were obtained:
[1] = molecular target: galectin-3 (Homo sapiens, UniProt P17931); assay: Fluorescence anisotropy assay, affinity for galectin-3; assay type: binding; conditions: compound as inhibitor of the interaction between galectin and a fluorescein tagged saccharide probe; read-out: Gal-3 Kd
Description: (§1) The affinity of Example 1-39 for galectins were determined by a fluorescence anisotropy assay where the compound was used as an inhibitor of the interaction between galectin and a fluorescein tagged saccharide probe as described Sarme, P., Kahl-Knutsson, B., Huflejt, M., Nilsson, U. J., and Leffler H. (2004) Fluorescence polarization as an analytical tool to evaluate galectin-ligand interactions. Anal. Biochem. 334: 36-47, (Sarme et al., 2004) and Monovalent interactions of Galectin-1 By Salomonsson, Emma; Larumbe, Amaia; Tejler, Johan; Tullberg, Erik; Rydberg, Hanna; Sundin, Anders; Khabut, Areej; Frejd, Torbjorn; Lobsanov, Yuri D.; Rini, James M.; et al, From Biochemistry (2010), 49(44), 9518-9532, (Salomonsson et al., 2010).

[2] = molecular target: galectin-1 (Homo sapiens, UniProt P09382); assay: Fluorescence anisotropy assay, affinity for galectin-1; assay type: binding; conditions: compound as inhibitor of the interaction between galectin and a fluorescein tagged saccharide probe; read-out: Gal-1 Kd
Sequence of galectin-1 (P09382 whole entry): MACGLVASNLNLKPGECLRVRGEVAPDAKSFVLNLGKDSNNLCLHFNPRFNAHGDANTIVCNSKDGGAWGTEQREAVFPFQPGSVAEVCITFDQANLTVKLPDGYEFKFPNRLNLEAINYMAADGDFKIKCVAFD
Description: as §1

Sequence of galectin-3 (P17931 whole entry): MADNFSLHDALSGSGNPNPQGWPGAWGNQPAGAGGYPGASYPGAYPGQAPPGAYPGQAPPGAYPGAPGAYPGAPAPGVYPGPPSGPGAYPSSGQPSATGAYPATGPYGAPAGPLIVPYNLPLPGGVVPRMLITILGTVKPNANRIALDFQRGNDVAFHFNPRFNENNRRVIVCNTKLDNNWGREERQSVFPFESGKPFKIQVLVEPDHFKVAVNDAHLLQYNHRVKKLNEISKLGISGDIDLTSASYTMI

pKd [1]	pKd [2]	Structure (SMILES)
6.28	7.49	COC1C(n2cc(-c3nc(Cl)cs3)nn2)[C@@H](O)C(CO)O[C@H]1c1ccnn1-c1cc(Br)cnc1C(F)(F)F (stereo partly drawn) [Example 33, 5-Bromo-3-{5-{3-[4-(4-chlorothiazol-2-yl)-1H-1,2,3-triazol-1-yl]-3-deoxy-2-O-methyl-β-D-galactopyranosyl}-1H-1,2-pyrazol-1-yl}-2-(trifluoromethyl)pyridine]
5.17	7.31	COC1C(n2cc(-c3csc(N)n3)nn2)[C@@H](O)C(CO)O[C@H]1c1ccnn1-c1cc(Cl)ccc1C(F)(F)F (stereo partly drawn) [Example 34, 1-{5-{3-[4-(2-Aminothiazol-4-yl)-1H-1,2,3-triazol-1-yl]-3-deoxy-2-O-methyl-β-D-galactopyranosyl}-1H-1,2-pyrazol-1-yl}-5-chloro-2-(trifluoromethyl)benzene]
5.38	7.51	COC1C(n2cc(-c3csc(O)n3)nn2)[C@@H](O)C(CO)O[C@H]1c1ccnn1-c1cc(Cl)ccc1C(F)(F)F (stereo partly drawn) [Example 35, 5-Chloro-1-{5-{3-deoxy-3-[4-(2-hydroxythiazol-4-yl)-1H-1,2,3-triazol-1-yl]-2-O-methyl-β-D-galactopyranosyl}-1H-1,2-pyrazol-1-yl}-2-(trifluoromethyl)benzene]
5.03	7.59	COC1C(n2cc(-c3csc(O)n3)nn2)[C@@H](O)C(CO)O[C@H]1c1ccnn1-c1cc(Cl)c(Cl)cc1C(F)(F)F (stereo partly drawn) [Example 36, 4,5-Dichloro-1-{5-{3-deoxy-3-[4-(2-hydroxythiazol-4-yl)-1H-1,2,3-triazol-1-yl]-2-O-methyl-β-D-galactopyranosyl}-1H-1,2-pyrazol-1-yl}-2-(trifluoromethyl)benzene]
5.33	7.77	COC1C(n2cc(-c3csc(O)n3)nn2)[C@@H](O)C(CO)O[C@H]1c1ccnn1-c1cc(Br)c(F)cc1C(F)(F)F (stereo partly drawn) [Example 37, 5-Bromo-1-{5-{3-deoxy-3-[4-(2-hydroxythiazol-4-yl)-1H-1,2,3-triazol-1-yl]-2-O-methyl-β-D-galactopyranosyl}-1H-1,2-pyrazol-1-yl}-4-fluoro-2-(trifluoromethyl)benzene]
5.31	6.92	COC1C(n2cc(-c3cscn3)nn2)[C@@H](O)C(CO)O[C@H]1c1ccnn1-c1cc(Cl)ccc1C(F)(F)F (stereo partly drawn) [Example 38, 5-Chloro-1-{5-{3-deoxy-2-O-methyl-3-[4-(4-thiazolyl)-1H-1,2,3-triazol-1-yl]-β-D-galactopyranosyl}-1H-1,2-pyrazol-1-yl}-2-(trifluoromethyl)benzene]
6.49	6.70	COC1C(n2cc(-c3nc(Cl)cs3)nn2)[C@@H](O)C(CO)O[C@H]1c1cc(C(N)=O)nn1-c1cc(Cl)ccc1C(F)(F)F (stereo partly drawn) [Example 39, 1-{3-Aminocarbonyl-5-{3-[4-(4-chlorothiazol-2-yl)-1H-1,2,3-triazol-1-yl]-3-deoxy-2-O-methyl-β-D-galactopyranosyl}-1H-1,2-pyrazol-1-yl}-5-chloro-2-(trifluoromethyl)benzene]
